Data on one cell line can be found in the supplement of paper PMC10307832.

What all share (experiment): relative viability (nuclei count vs DMSO), 5 days (fraction); higher = more cells survive
Compound in assay [1]: C1CC1C(=O)NC2=NNC3=C2C=CC(=C3)C4=CC(=CC=C4)C(=O)NC5CC5 [XMD13-2] + C[C@]1(O)C[C@@H](c2nc(-c3ccc4ccc(-c5ccccc5)nc4c3)c3c(N)nccn32)C1 [Linsitinib] (partner 1 µM)
The method, boiled down:
(§1)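 Cells from lung cancer lines were seeded into 1536-well plates and, one day later, dosed by pin tool. Treatments were either a single drug or a fixed dose of an anchor drug with five library-drug doses (not always all listed) in √10 steps. After 5 days, nuclei were stained in a one-step fixation (final 0.05% Triton X-100, 1% formaldehyde, 1 ug/ml Hoechst) and counted on 4× images, and relative viability is the treated-to-vehicle nuclei ratio, as the median of duplicate plates.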

Compound in assay [2]: Cc1ccc(C(=O)Nc2cccc(C(F)(F)F)c2)cc1Nc1cncc(C(N)=O)c1 [ALW-II-49-7] + O=C(c1cc(Cc2n[nH]c(=O)c3ccccc23)ccc1F)N1CCN(C(=O)C2CC2)CC1 [Olaparib] (partner 8 µM)
The method, boiled down: as §1

Compound in assay [3]: Cc1ccc(C(=O)Nc2cccc(C(F)(F)F)c2)cc1Nc1cncc(C(N)=O)c1 [ALW-II-49-7] + CC1(C)CCC(c2ccc(Cl)cc2)=C(CN2CCN(c3ccc(C(=O)NS(=O)(=O)c4ccc(N[C@H](CCN5CCOCC5)CSc5ccccc5)c(S(=O)(=O)C(F)(F)F)c4)cc3)CC2)C1 [Navitoclax] (partner 0.5 µM)
The essentials: as §1

Compound in assay [4]: Cc1nc(Nc2ncc(C(=O)Nc3c(C)cccc3Cl)s2)cc(N2CCN(CCO)CC2)n1 [Dasatinib] + C[C@]1(O)C[C@@H](c2nc(-c3ccc4ccc(-c5ccccc5)nc4c3)c3c(N)nccn32)C1 [Linsitinib] (partner 1 µM)
The essentials: as §1

On to UMC-11, for which the relative viability came to 1.18 in assay [1] (first compound 0.05 µM); 0.942 in assay [1] (first compound 0.1581 µM); 0.996 in assay [1] (first compound 0.5 µM); 1.07 in assay [1] (first compound 1.581 µM); 1.04 in assay [1] (first compound 5 µM); 0.428 in assay [2] (first compound 0.08 µM). Further, the relative viability stood at 0.428 in assay [2] (first compound 0.253 µM); 0.413 in assay [2] (first compound 0.8 µM); 0.345 in assay [2] (first compound 2.53 µM); 0.342 in assay [2] (first compound 8 µM); 0.311 in assay [3] (first compound 0.08 µM); 0.345 in assay [3] (first compound 0.253 µM). Besides, the relative viability in assay [3] (first compound 2.53 µM) is 0.322; in assay [3] (first compound 8 µM) it was 0.335; in assay [4] (first compound 0.005 µM) it was 0.911; in assay [4] (first compound 0.01581 µM), 0.827; in assay [4] (first compound 0.05 µM), 0.543; in assay [4] (first compound 0.1581 µM) it was 0.342. In addition, the relative viability in assay [4] (first compound 0.5 µM) is 0.319.
